Reference: patent US11534457B2, “Use of dextran sulfate” (priority 2017, dated 2022)

System: severe traumatic brain injury (sTBI)
Experiment: sTBI in rats, brain gene expression arrays and pathway analysis (Example 9)
Assay type: in vivo, Male Wistar rats
Conditions: 2 days after TBI
Method: The experimental protocol used in this study was approved by the Ethical Committee of the Catholic University of Rome, according to international standards and guidelines for animal care. Male Wistar rats of 300-350 g body weight were fed with standard laboratory diet and water ad libitum in a controlled environment. As the anesthetic mixture, the animals received 35 mg/kg b.w. ketamine and 0.25 mg/kg body weight midazolam by i.p. injection. Severe traumatic brain injury (sTBI) was induced by dropping a 450 g weight from 2 m height on to the rat head that had been protected by a metal disk previously fixed on the skull, according to the “weight drop” impact acceleration model (Marmarou et al., A new model of diffuse brain injury in rats. Part I: Pathophysiology and biomechanics. J Neurosurg. 1994; 80: 291-300). […] At the end of each period of treatment, rats were anesthetized again and then immediately sacrificed.
LMW-DS (Tikomed AB) was provided at a stock concentration of 20 mg/ml and was kept in a temperature-monitored refrigerator at 4° C. LMW-DS aliquots were diluted to the appropriate dosing concentration in sterile saline prior to delivery of a single subcutaneous injection.
Three doses of LMW-DS were administered subcutaneously 30 minutes post-TBI. The animals were sacrificed at 2 days post-TBI. The animals were divided into the following subgroups:
Three doses of LMW-DS were administered subcutaneously 30 minutes post-TBI. The animals were sacrificed at 7 days post-TBI. The animals were divided into the following subgroups:
An in vivo craniectomy was performed on all animals during anesthesia. After carefully removing the rat's skull, the brain was exposed and removed with a surgical spatula and quickly dropped in RNALater and preserved at 4° C. for further processing.
RNA extraction and array processing was carried out by SourceBioscience. The arrays used were the Agilent Rat expression arrays.
Statistical analysis was carried out using the Metaboanalyst software package. Gene expression changes of 10% with a p<0.05 were regarded as significant.
Pathway analysis of the differentially regulated genes was carried out using the Ingenuity pathway analysis package. The analysis was performed with special reference to pathways and molecular processes and diseases associated with neurodegenerative disease, including dementia, Alzheimer's disease, ALS, TBI and stroke, and with scarring and fibrosis, including glaucoma and normal pressure hydrocephalus (NPH) after subarachnoid haemorrhage.

[1] = TBI + 5 mg/kg LMW-DS, relative to control

“low molecular weight dextran sulfate [LMW-DS]” was tested, and the “effect on canonical pathway Adrenomedullin Signaling pathway” value (TBI + 5 mg/kg LMW-DS) was “Inhibited”, the “effect on canonical pathway NF-κ13 Signaling” value (TBI + 5 mg/kg LMW-DS) was “Inhibited” and the “effect on canonical pathway Osteoarthritis Pathway” value (TBI + 5 mg/kg LMW-DS) was “Inhibited”. For the same substance, the “effect on canonical pathway Role of NFAT in Cardiac Hypertrophy” value (TBI + 5 mg/kg LMW-DS) was “Inhibited”, the “z score, Abdominal cancer” value (TBI + 5 mg/kg LMW-DS) was −2.553 and the “z score, Abdominal carcinoma” value (TBI + 5 mg/kg LMW-DS) was −2.631. For the same substance, the “z score, Abdominal neoplasm” value (TBI + 5 mg/kg LMW-DS) was −0.927, the “z score, Apoptosis” value (TBI + 5 mg/kg LMW-DS) was 0.601 and the “z score, Behavior” value (TBI + 5 mg/kg LMW-DS) was −2.009. For the same substance, the “z score, Carcinoma” value (TBI + 5 mg/kg LMW-DS) was −2.071, the “z score, Cell death” value (TBI + 5 mg/kg LMW-DS) was 0.051 and the “z score, Cell death of antigen presenting cells” value (TBI + 5 mg/kg LMW-DS) was −0.62. The “z score, Cell death of immune cells” value (TBI + 5 mg/kg LMW-DS) was −1, the “z score, Cell death of tumor cell lines” value (TBI + 5 mg/kg LMW-DS) was −1.947 and the “z score, Cell movement” value (TBI + 5 mg/kg LMW-DS) was −3.723. For the same substance, the “z score, Cell movement of tumor cell lines” value (TBI + 5 mg/kg LMW-DS) was −2.078, the “z score, Cell proliferation of leukocyte cell lines” value (TBI + 5 mg/kg LMW-DS) was −2.754 and the “z score, Cellular homeostasis” value (TBI + 5 mg/kg LMW-DS) was −3.19. For the same substance, the “z score, Chemotaxis” value (TBI + 5 mg/kg LMW-DS) was −3.642, the “z score, Development of vasculature” value (TBI + 5 mg/kg LMW-DS) was −1.534 and the “z score, Digestive organ tumor” value (TBI + 5 mg/kg LMW-DS) was −1.149. The “z score, Digestive system cancer” value (TBI + 5 mg/kg LMW-DS) was −2.221, the “z score, Edema” value (TBI + 5 mg/kg LMW-DS) was 3.386 and the “z score, Epithelial neoplasm” value (TBI + 5 mg/kg LMW-DS) was −1.393. For the same substance, the “z score, Extracranial solid tumor” value (TBI + 5 mg/kg LMW-DS) was −0.992, the “z score, Feeding” value (TBI + 5 mg/kg LMW-DS) was −0.895 and the “z score, Growth of tumor” value (TBI + 5 mg/kg LMW-DS) was −1.233. For the same substance, the “z score, Hematologic cancer” value (TBI + 5 mg/kg LMW-DS) was −1.067, the “z score, Incidence of tumor” value (TBI + 5 mg/kg LMW-DS) was −0.731 and the “z score, Leukocyte migration” value (TBI + 5 mg/kg LMW-DS) was −2.163. The “z score, Leukopoiesis” value (TBI + 5 mg/kg LMW-DS) was −3.549, the “z score, Lymphocyte homeostasis” value (TBI + 5 mg/kg LMW-DS) was −2.94 and the “z score, Lymphocytic cancer” value (TBI + 5 mg/kg LMW-DS) was −0.48. The “z score, Lymphocytic neoplasm” value (TBI + 5 mg/kg LMW-DS) was −0.48, the “z score, Lymphopoiesis” value (TBI + 5 mg/kg LMW-DS) was −3.105 and the “z score, Lymphoproliferative disorder” value (TBI + 5 mg/kg LMW-DS) was −0.48. For the same substance, the “z score, Malignant solid tumor” value (TBI + 5 mg/kg LMW-DS) was −1.492, the “z score, Metabolism of hormone” value (TBI + 5 mg/kg LMW-DS) was −1.632 and the “z score, Migration of cells” value (TBI + 5 mg/kg LMW-DS) was −3.087. For the same substance, the “z score, Necrosis” value (TBI + 5 mg/kg LMW-DS) was −1.503, the “z score, Neoplasia of leukocytes” value (TBI + 5 mg/kg LMW-DS) was −0.48 and the “z score, Non-melanoma solid tumor” value (TBI + 5 mg/kg LMW-DS) was −1.249. The “z score, Proliferation of hematopoietic progenitor cells” value (TBI + 5 mg/kg LMW-DS) was −2.951, the “z score, Quantity of cells” value (TBI + 5 mg/kg LMW-DS) was −3.092 and the “z score, Quantity of epithelial tissue” value (TBI + 5 mg/kg LMW-DS) was −0.028. For the same substance, the “z score, Quantity of neuroglia” value (TBI + 5 mg/kg LMW-DS) was −1.446, the “z score, Resorption of bone” value (TBI + 5 mg/kg LMW-DS) was −0.478 and the “z score, Secretion of molecule” value (TBI + 5 mg/kg LMW-DS) was 1.634. The “z score, Synthesis of hormone” value (TBI + 5 mg/kg LMW-DS) was −1.632, the “z score, Transport of molecule” value (TBI + 5 mg/kg LMW-DS) was 0.248 and the “z score, Vasculogenesis” value (TBI + 5 mg/kg LMW-DS) was −2.274. For the same substance, the “z score, canonical pathway Adrenomedullin Signaling pathway” value [1] was −2.236, the “z score, canonical pathway NF-κb Signaling” value [1] was −2 and the “z score, canonical pathway Osteoarthritis Pathway” value [1] was −2.646. The “z score, canonical pathway Role of NFAT in Cardiac Hypertrophy” value [1] was −1.63, the “z score, Apoptosis” value (TBI + 15 mg/kg LMW-DS) was −0.502 and the “z score, Apoptosis of tumor cell lines” value (TBI + 15 mg/kg LMW-DS) was 0.09. For the same substance, the “z score, Behavior” value (TBI + 15 mg/kg LMW-DS) was −0.139, the “z score, Cell death” value (TBI + 15 mg/kg LMW-DS) was −0.141 and the “z score, Necrosis” value (TBI + 15 mg/kg LMW-DS) was −0.477. The “z score, Quantity of blood cells” value (TBI + 15 mg/kg LMW-DS) was −0.34, the “z score, Quantity of cells” value (TBI + 15 mg/kg LMW-DS) was −0.797 and the “z score, Quantity of lymphocytes” value (TBI + 15 mg/kg LMW-DS) was −0.943. For the same substance, the “Diseases or functions annotation: Abdominal cancer” value (TBI + 1 mg/kg LMW-DS) was “Inhibited”, the “Diseases or functions annotation: Abdominal carcinoma” value (TBI + 1 mg/kg LMW-DS) was “Inhibited” and the “Diseases or functions annotation: Abdominal neoplasm” value (TBI + 1 mg/kg LMW-DS) was “Inhibited”. The “Diseases or functions annotation: Activation of blood cells” value (TBI + 1 mg/kg LMW-DS) was “Activated”, the “Diseases or functions annotation: Activation of cells” value (TBI + 1 mg/kg LMW-DS) was “Activated” and the “Diseases or functions annotation: Activation of leukocytes” value (TBI + 1 mg/kg LMW-DS) was “Activated”. For the same substance, the “Diseases or functions annotation: Activation of lymphocytes” value (TBI + 1 mg/kg LMW-DS) was “Inhibited”, the “Diseases or functions annotation: Adhesion of tumor cell lines” value (TBI + 1 mg/kg LMW-DS) was “Activated” and the “Diseases or functions annotation: Apoptosis” value (TBI + 1 mg/kg LMW-DS) was “Inhibited”. The “Diseases or functions annotation: Apoptosis of muscle cells” value (TBI + 1 mg/kg LMW-DS) was “Activated”, the “Diseases or functions annotation: Behavior” value (TBI + 1 mg/kg LMW-DS) was “Activated” and the “Diseases or functions annotation: Binding of tumor cell lines” value (TBI + 1 mg/kg LMW-DS) was “Activated”. The “Diseases or functions annotation: Carcinoma” value (TBI + 1 mg/kg LMW-DS) was “Inhibited”, the “Diseases or functions annotation: Cell death” value (TBI + 1 mg/kg LMW-DS) was “Inhibited” and the “Diseases or functions annotation: Cell death of blood cells” value (TBI + 1 mg/kg LMW-DS) was “Activated”. For the same substance, the “Diseases or functions annotation: Cell death of immune cells” value (TBI + 1 mg/kg LMW-DS) was “Activated”, the “Diseases or functions annotation: Cell movement” value (TBI + 1 mg/kg LMW-DS) was “Activated” and the “Diseases or functions annotation: Cell movement of muscle cells” value (TBI + 1 mg/kg LMW-DS) was “Inhibited”. For the same substance, the “Diseases or functions annotation: Cell movement of vascular smooth muscle cells” value (TBI + 1 mg/kg LMW-DS) was “Inhibited”, the “Diseases or functions annotation: Cell proliferation of T lymphocytes” value (TBI + 1 mg/kg LMW-DS) was “Inhibited” and the “Diseases or functions annotation: Cellular homeostasis” value (TBI + 1 mg/kg LMW-DS) was “Activated”. For the same substance, the “Diseases or functions annotation: Development of connective tissue cells” value (TBI + 1 mg/kg LMW-DS) was “Inhibited”, the “Diseases or functions annotation: Differentiation of bone cells” value (TBI + 1 mg/kg LMW-DS) was “Inhibited” and the “Diseases or functions annotation: Differentiation of connective tissue cells” value (TBI + 1 mg/kg LMW-DS) was “Activated”. The “Diseases or functions annotation: Differentiation of hematopoietic progenitor cells” value (TBI + 1 mg/kg LMW-DS) was “Activated”, the “Diseases or functions annotation: Differentiation of osteoclasts” value (TBI + 1 mg/kg LMW-DS) was “Inhibited” and the “Diseases or functions annotation: Digestive organ tumor” value (TBI + 1 mg/kg LMW-DS) was “Inhibited”. For the same substance, the “Diseases or functions annotation: Experimentally-induced arthritis” value (TBI + 1 mg/kg LMW-DS) was “Inhibited”, the “Diseases or functions annotation: Extracranial solid tumor” value (TBI + 1 mg/kg LMW-DS) was “Activated” and the “Diseases or functions annotation: Genital tumor” value (TBI + 1 mg/kg LMW-DS) was “Activated”. The “Diseases or functions annotation: Incidence of tumor” value (TBI + 1 mg/kg LMW-DS) was “Inhibited”, the “Diseases or functions annotation: Inflammation of absolute anatomical region” value (TBI + 1 mg/kg LMW-DS) was “Inhibited” and the “Diseases or functions annotation: Inflammation of body cavity” value (TBI + 1 mg/kg LMW-DS) was “Inhibited”. The “Diseases or functions annotation: Inflammation of joint” value (TBI + 1 mg/kg LMW-DS) was “Inhibited”, the “Diseases or functions annotation: Inflammation of organ” value (TBI + 1 mg/kg LMW-DS) was “Inhibited” and the “Diseases or functions annotation: Inflammatory response” value (TBI + 1 mg/kg LMW-DS) was “Activated”. The “Diseases or functions annotation: Interaction of mononuclear leukocytes” value (TBI + 1 mg/kg LMW-DS) was “Activated”, the “Diseases or functions annotation: Leukocyte migration” value (TBI + 1 mg/kg LMW-DS) was “Activated” and the “Diseases or functions annotation: Leukopoiesis” value (TBI + 1 mg/kg LMW-DS) was “Activated”. The “Diseases or functions annotation: Lymphopoiesis” value (TBI + 1 mg/kg LMW-DS) was “Activated” and the “Diseases or functions annotation: Malignant solid tumor” value (TBI + 1 mg/kg LMW-DS) was “Inhibited”.
